Laboratory results taken from ChEMBL document CHEMBL3045356, “Synthesis and biological evaluation of a novel class as antileishmanial agent” (Med Chem Res, 2012).
Activity calls are given as the source filed them. No cut-off for these calls is given here.

What was measured:
Mus musculus [1] = assay: Toxicity in Mus musculus Swiss albino (mouse) infected with promastigote stage of Leishmania major MHOM/IL/81/FEBNI assessed as severe irritation of epidermis at 20 umol administered 21 days post infection measured after 5 weeks; assay type: organism-based; settings: in vivo, 840 h
Leishmania major [2] = assay: Antileishmanial activity against promastigote stage of Leishmania major MHOM/IL/81/FEBNI infected Swiss albino mouse assessed as decrease in parasite number in cutaneous lesion at 20 umol administered 21 days post infection measured after 5 weeks by Giemsa staining; assay type: functional, organism-based
Leishmania major [3] = assay: Antileishmanial activity against promastigote stage of Leishmania major MHOM/IL/81/FEBNI infected Swiss albino mouse assessed as decrease in parasite-induced inflammatory reaction in cutaneous lesion at 20 umol administered 21 days post infection measured after 5 weeks by Giemsa staining; assay type: functional, organism-based
Leishmania major [4] = assay: Antileishmanial activity against promastigote stage of Leishmania major MHOM/IL/81/FEBNI infected Swiss albino mouse assessed as decrease in swelling and redness of inoculated footpad at 20 umol administered 21 days post infection measured after 5 weeks; assay type: functional, organism-based
Leishmania major [5] = assay: Antileishmanial activity against promastigote stage of Leishmania major MHOM/IL/81/FEBNI assessed as cell viability at 10 umol measured every day for 5 days by light microscopic analysis; assay type: functional, organism-based
Leishmania major [6] = assay: Antileishmanial activity against promastigote stage of Leishmania major MHOM/IL/81/FEBNI assessed as parasite motility at 10 umol measured every 10 min for 1 hr by light microscopic analysis; assay type: functional, organism-based
Leishmania major [7] = assay: Antileishmanial activity against promastigote stage of Leishmania major MHOM/IL/81/FEBNI infected Swiss albino mouse assessed as inhibition of autoamputation of inoculated footpad at 20 umol administered 21 days post infection measured after 5 weeks relative to untreated mouse; assay type: functional, organism-based
Leishmania major [8] = assay: Antileishmanial activity against promastigote stage of Leishmania major MHOM/IL/81/FEBNI infected Swiss albino mouse assessed as decrease in cutaneous lesion progression at 20 umol administered 21 days post infection measured after 5 weeks relative to untreated mouse; assay type: functional, organism-based
Mus musculus [9] = assay: Toxicity in Mus musculus Swiss albino (mouse) infected with promastigote stage of Leishmania major MHOM/IL/81/FEBNI assessed as deposition of haemosidrin in macrophages at 20 umol administered 21 days post infection measured after 5 weeks; assay type: organism-based; settings: in vivo, 840 h
Mus musculus [10] = assay: Toxicity in Mus musculus Swiss albino (mouse) infected with promastigote stage of Leishmania major MHOM/IL/81/FEBNI assessed as vascular thrombosis at 20 umol administered 21 days post infection measured after 5 weeks; assay type: organism-based; settings: in vivo, 840 h
Leishmania major [11] = assay: Antileishmanial activity against promastigote stage of Leishmania major MHOM/IL/81/FEBNI infected Swiss albino mouse assessed as inhibition of gangrene in inoculated footpad at 20 umol administered 21 days post infection measured after 5 weeks relative to untreated mouse; assay type: functional, organism-based
Leishmania major [12] = assay: Antileishmanial activity against promastigote stage of Leishmania major MHOM/IL/81/FEBNI infected Swiss albino mouse assessed as inhibition of lesion development in inoculated footpad at 20 umol administered 21 days post infection measured after 5 weeks relative to untreated mouse; assay type: functional, organism-based

Row | SMILES | Activity (Mus musculus [1]) | Activity (Leishmania major [2]) | Activity (Leishmania major [3]) | Activity (Leishmania major [4]) | Activity (Leishmania major [5]) | Activity (Leishmania major [6]) | inhibition of footpad autoamputation (active/not active) (Leishmania major [7]) | Activity (Leishmania major [8]) | Activity (Mus musculus [9]) | Activity (Mus musculus [10]) | inhibition (Leishmania major [11]) | inhibition (Leishmania major [12])
1 | C/C=C/C(=O)NNC(=O)C1=C(C)NC(=S)NC1c1cccc([N+](=O)[O-])c1 (stereo unspecified) | Non-toxic | Active | Active | Active | Active | Active |  |  |  |  |  | 
2 | CC1=C(C(=O)NNC(=O)c2ccccc2O)C(c2ccc(N(C)C)cc2)NC(=S)N1 (stereo unspecified) |  | inactive |  |  | Active | Active | Active | Active |  |  |  | 
3 | CC1=C(C(=O)NNC(=O)c2ccccc2O)C(c2cccc([N+](=O)[O-])c2)NC(=S)N1 (stereo unspecified) | Toxic | Active | Active | Active | Active | Active |  |  |  |  |  | 
4 | CC(=O)Nc1ccc(NC(=O)C2=C(C)NC(=O)NC2c2ccc(N(C)C)cc2)cc1 (stereo unspecified) | Toxic | inactive |  |  | Active | Active | Active | Active | Toxic | Toxic |  | 
5 | CC1=C(C(=O)N(CCCl)CCCl)C(c2cccc([N+](=O)[O-])c2)NC(=S)N1 (stereo unspecified) | Non-toxic | Active | Active | Active | Active | Active |  |  |  |  |  | 
6 | COc1cc(C2NC(=S)NC(C)=C2C(=O)NNC(=O)c2ccccc2O)cc(OC)c1OC (stereo unspecified) |  | inactive |  |  | Active | Active | inactive | Active |  |  | inactive | inactive
7 | CC1=C(C(=O)NNC(=O)c2ccccc2O)C(c2cccc([N+](=O)[O-])c2)NC(=O)N1 (stereo unspecified) | Toxic | Active | Active | Active | Active | Active |  |  |  |  |  | 
8 | CC1=C(C(=O)NNC(=O)c2ccccc2O)C(c2ccc(N(C)C)cc2)NC(=O)N1 (stereo unspecified) |  | inactive |  |  | Active | Active | inactive | Active |  |  | inactive | inactive
9 | CC1=C(C(=O)N(CCO)CCO)C(c2cccc([N+](=O)[O-])c2)NC(=S)N1 (stereo unspecified) |  | inactive |  |  | Active | Active | Active | Active |  |  |  | 
